In patent US9145411B2, “Substituted amino-pyrimidine derivatives” (Asana Biosciences, LLC, priority 2012, dated 2015):

How the values were obtained:
PI3 kinase isoform δ = PI3 kinase isoform δ (Homo sapiens, UniProt O00329); experiment: PI3 Kinase TR-FRET assay, isoform δ; assay type: biochemical; conditions: read-out: inhibition of PI3 kinase isoform δ, IC50
Description: (§1) The ability of compounds of the invention to inhibit PI3K activity was determined in a homogeneous TR-FRET assay using a PI3K assay kit (Millipore, USA; cat #33-016) according to manufacturer's instructions. PI3-Kinases (isoforms α, β, γ and δ) catalyze the phosphorylation of phosphatidylinositol, PIP2 to PIP3 in the presence of ATP and Mg^2+. The PIP3 product is detected by displacement of biotin-PIP3 from an energy transfer complex consisting of Europium labeled anti-GST monoclonal antibody, a GST-tagged PH domain, biotinylated PIP3 and Streptavidin-APC. Excitation of Europium in the complex results in an energy transfer to the APC and a fluorescence emission at 665 nm. The PIP3 product displaces biotin-PIP3 from the complex resulting in a loss of energy transfer and thus a decrease in signal.
(§2) To test for the ability of compounds to inhibit the activity of PI3Kα (wild-type), exemplary compounds of formula (I) were dissolved in DMSO and directly distributed into 384-well plates at a volume of 0.5 μL. 14.5 μL of P110/P85α/PIP2 mixture in buffer (obtained from the Millipore kit) containing MgCl2 (40 mM) and DTT (5 mM) was added to compound wells and incubated for 60 minutes at room temperature. P110/P85α was expressed in SF9 insect cells and purified nickel column extraction. Five ng of wild-type P110/P85α was used in the assay. The kinase reaction was started by the addition of ATP. The assay concentrations of both PIP2 and ATP were 10 μM. The reaction mixture was incubated for 30 minutes at room temperature and was terminated by the addition of stop mix and detection mix. Fluorescence was measured at 615 and 665 nm upon excitation at 340 nm in a Victor™ V5 fluorometer (Perkin Elmer, USA). The fluorescence emission ratio at 665 to 615 nm, proportional to the kinase activity, was plotted against the compound concentration to generate dose-response curves and IC50 values were determined using GraphPad Prism® 5 software.
The activity of PI3 kinase isoforms β, γ and δ were assayed in a similar manner to the assay protocol described above for PI3Kα, by substituting the appropriate p110/p85 isoform for the p110α/p85α. Compounds of formula (I) caused inhibition of PI3 kinase isoforms β, γ and δ as determined by these assays. For example, the compounds of Examples 3 and 21 each caused inhibition of PI3 kinase isoform β with IC50 values<500 nM. The compounds of Examples 3, 7, 21, 47, 48 and 49 each caused inhibition of PI3 kinase isoform γ with IC50 values<500 nM. The compounds of Example 3, 7, 47, 48, and 49 caused inhibition of PI3 kinase isoform δ with IC50 values<1 μM.

PI3Kα mutation H1047R = PI3Kα mutation H1047R (Homo sapiens, UniProt P42336, H1047R); experiment: PI3 Kinase TR-FRET assay, PI3Kα mutation H1047R; assay type: biochemical; conditions: read-out: inhibition of PI3Kα mutation H1047R, IC50
Description: as §1, §2
The activity of PI3Kα mutations H1047R and E545K were assayed in a similar manner to the assay protocol described above for PI3Kα (wild type). The compounds of formula (I) caused inhibition of PI3Kα mutations H1047R (a mutation associated with breast and gastric cancers) and E545K (a mutation associated with colorectal tumors, glioblastomas, gastric cancers, breast cancers, and lung cancers). For example, each of the compounds of Example 3, 7, 21, 47, 48 and 49 caused inhibition of each of the PI3Kα mutations H1047R and E545K with IC50 values<50 nM.

T47D cells = experiment: XTT assay for cell viability, T47D cells; assay type: cell-based; conditions: Homo sapiens, read-out: inhibition of T47D cell proliferation, IC50
Description: Using a commercial kit from Sigma Aldrich (Catalog #X34251) and following its protocol, PC3 cells in the log phase of growth were employed and seeded at an optimal density of 1000 cell/well on to 96 well plates and incubated for 24 hours followed by the addition of compounds of formula (I) in serial dilutions. Compound dilutions were made in DMSO. The cells were incubated with the compounds of formula (I) for 96 hours and XTT tetrazolium dye (Sigma, USA) was subsequently added and incubated at 37° C. After the color formation, absorbance was measured at 465 nm in a Spectramax® Gemini spectrophotometer. EC50 values were calculated using a sigmoidal dose response curve fit in GraphPad Prism® v5 software. The tested compounds of formula (I) which caused inhibition of PC3 cell proliferation as determined by this assay protocol are shown in Table 2.
XTT assays for cell viability were also determined in U87MG, BT474 cells and T47D cells, in a similar manner to the protocol described above. The compounds cause inhibition of U87MG, BT474 and T47D cell proliferation as determined by these assays. For example, the compounds of Examples 3 and 7 caused inhibition of U87MG, BT474 and T47D cell proliferation with IC50 values<600 nM.

Sequence of PI3 kinase isoform δ (O00329 whole entry, the tested form may be a part, canonical isoform): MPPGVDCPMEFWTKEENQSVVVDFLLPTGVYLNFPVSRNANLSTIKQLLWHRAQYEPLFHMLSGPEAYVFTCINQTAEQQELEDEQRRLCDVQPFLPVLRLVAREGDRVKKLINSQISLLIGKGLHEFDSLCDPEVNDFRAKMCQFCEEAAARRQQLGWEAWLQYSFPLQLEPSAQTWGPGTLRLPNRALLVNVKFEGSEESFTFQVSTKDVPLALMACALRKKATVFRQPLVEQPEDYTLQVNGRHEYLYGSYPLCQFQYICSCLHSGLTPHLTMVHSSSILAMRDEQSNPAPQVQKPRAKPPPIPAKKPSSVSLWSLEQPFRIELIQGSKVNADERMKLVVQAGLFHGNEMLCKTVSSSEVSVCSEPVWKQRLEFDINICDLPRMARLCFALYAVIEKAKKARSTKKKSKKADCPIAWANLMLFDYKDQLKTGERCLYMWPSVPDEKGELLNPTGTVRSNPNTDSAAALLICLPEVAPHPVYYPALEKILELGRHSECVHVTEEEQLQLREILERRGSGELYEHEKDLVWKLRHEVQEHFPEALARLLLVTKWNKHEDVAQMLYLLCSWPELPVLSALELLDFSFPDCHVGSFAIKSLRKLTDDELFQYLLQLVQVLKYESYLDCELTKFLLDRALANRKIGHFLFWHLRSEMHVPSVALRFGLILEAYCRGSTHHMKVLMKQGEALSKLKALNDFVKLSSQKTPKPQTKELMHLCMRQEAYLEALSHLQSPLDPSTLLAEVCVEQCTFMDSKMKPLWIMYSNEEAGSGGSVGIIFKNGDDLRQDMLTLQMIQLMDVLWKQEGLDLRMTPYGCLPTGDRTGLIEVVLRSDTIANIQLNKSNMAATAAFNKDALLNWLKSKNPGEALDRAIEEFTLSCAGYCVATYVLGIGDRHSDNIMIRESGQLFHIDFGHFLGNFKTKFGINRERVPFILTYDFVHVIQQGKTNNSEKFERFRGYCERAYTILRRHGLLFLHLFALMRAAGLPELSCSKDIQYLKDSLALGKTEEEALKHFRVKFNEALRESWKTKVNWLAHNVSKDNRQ
Sequence of PI3 kinase isoform δ (P27986 whole entry partner, the tested form may be a part, canonical isoform): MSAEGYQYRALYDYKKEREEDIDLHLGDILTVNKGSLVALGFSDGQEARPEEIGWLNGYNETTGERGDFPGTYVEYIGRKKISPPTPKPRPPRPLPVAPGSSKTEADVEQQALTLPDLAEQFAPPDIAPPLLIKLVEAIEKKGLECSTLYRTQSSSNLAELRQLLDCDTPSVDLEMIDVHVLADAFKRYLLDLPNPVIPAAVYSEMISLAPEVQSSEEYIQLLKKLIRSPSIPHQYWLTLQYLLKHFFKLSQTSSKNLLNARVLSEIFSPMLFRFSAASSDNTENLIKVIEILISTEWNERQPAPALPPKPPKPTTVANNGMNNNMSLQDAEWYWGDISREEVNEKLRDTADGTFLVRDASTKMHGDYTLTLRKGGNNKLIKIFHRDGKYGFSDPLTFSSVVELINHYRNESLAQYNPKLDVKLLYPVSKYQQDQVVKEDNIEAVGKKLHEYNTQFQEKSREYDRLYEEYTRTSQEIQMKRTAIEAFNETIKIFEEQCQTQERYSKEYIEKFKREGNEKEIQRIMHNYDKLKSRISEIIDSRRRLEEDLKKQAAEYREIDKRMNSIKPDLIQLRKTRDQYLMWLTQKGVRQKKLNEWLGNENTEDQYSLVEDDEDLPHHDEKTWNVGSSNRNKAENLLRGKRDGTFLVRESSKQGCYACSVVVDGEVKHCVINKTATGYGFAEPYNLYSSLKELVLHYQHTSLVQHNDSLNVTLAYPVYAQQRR
Sequence of PI3Kα mutation H1047R (P42336 whole entry H1047R): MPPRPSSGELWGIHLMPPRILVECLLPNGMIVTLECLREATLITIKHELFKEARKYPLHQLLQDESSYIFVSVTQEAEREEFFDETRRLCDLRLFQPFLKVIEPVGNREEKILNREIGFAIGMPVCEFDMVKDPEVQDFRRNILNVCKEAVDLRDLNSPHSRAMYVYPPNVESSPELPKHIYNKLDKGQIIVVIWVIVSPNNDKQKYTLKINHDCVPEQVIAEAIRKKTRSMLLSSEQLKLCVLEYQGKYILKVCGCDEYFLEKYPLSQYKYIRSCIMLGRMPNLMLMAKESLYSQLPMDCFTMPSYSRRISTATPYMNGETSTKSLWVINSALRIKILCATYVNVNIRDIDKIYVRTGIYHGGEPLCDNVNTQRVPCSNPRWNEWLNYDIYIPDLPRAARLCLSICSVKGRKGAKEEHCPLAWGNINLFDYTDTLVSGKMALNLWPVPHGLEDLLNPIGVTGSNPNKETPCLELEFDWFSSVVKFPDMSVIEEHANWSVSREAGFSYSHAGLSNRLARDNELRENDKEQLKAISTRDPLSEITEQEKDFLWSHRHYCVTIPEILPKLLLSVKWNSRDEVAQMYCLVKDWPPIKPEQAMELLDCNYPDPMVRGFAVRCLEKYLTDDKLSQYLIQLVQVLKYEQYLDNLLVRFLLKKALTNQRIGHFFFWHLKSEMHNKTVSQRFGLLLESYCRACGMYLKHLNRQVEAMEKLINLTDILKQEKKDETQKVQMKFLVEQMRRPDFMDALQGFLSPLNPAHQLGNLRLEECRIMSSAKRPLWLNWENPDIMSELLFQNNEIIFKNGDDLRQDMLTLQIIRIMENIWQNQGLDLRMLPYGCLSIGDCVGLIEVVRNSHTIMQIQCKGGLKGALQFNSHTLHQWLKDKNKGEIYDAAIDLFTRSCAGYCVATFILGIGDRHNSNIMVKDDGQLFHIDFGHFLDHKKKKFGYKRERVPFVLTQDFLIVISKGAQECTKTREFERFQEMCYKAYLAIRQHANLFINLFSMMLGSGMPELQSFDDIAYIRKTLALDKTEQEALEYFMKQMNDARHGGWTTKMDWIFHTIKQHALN
Sequence of PI3Kα mutation H1047R (P27986 whole entry partner): as the sequence (P27986 whole entry partner, the tested form may be a part, canonical isoform) above

| IC50 (PI3 kinase isoform δ) [µM] | IC50 (PI3Kα mutation H1047R) [µM] | IC50 (T47D cells) [µM] | Compound |
| --- | --- | --- | --- |
| < 1 | < 0.05 | < 0.6 | CC(=O)Nc1cccc(-c2cnc3c(N4CCOCC4)nc(-c4cnc(N)nc4)nc3c2)c1 [Example 3, N-(3-(2-(2-Aminopyrimidin-5-yl)-4-morpholinopyrido[3,2-d]pyrimidin-7-yl)-phenyl)acetamide] |
| < 1 | < 0.05 | < 0.6 | Nc1ncc(-c2nc(N3CCOCC3)c3ncc(-c4cccc(NC(=O)C5CC5)c4)cc3n2)cn1 [Example 7, N-(3-(2-(2-Aminopyrimidin-5-yl)-4-morpholinopyrido[3,2-d]pyrimidin-7-yl)-phenyl)cyclopropanecarboxamide] |
